Earlier results on two molecules are cited in patent publication US11013777B2, “Aronia extract for enhancing reaction time and attention” (BioActor BV, priority 2017, dated 2021).

Take `OC[C@H]1O[C@@H](Oc2cc3c(O)cc(O)cc3[o+]c2-c2ccc(O)c(O)c2)[C@H](O)[C@@H](O)[C@H]1O` [cyanidin-3-galactoside]: the “share of the total metabolites found in plasma” value (humans, plasma) is recorded as “around 65%”.

For anthocyanins, for the setting “in vivo”, the “absorption in the small intestine” value is listed as “poor absorption”; the “appearance in plasma post-ingestion” value was “Thirty minutes post-ingestion, anthocyanins can be measured in plasma”; the “glucuronidated share of the total anthocyanins in plasma and urine” value is “approximately 55%”.
